Experimental data from US20090258836A1, “EFFECTIVE DELIVERY OF CROSS-SPECIES A3 ADENOSINE-RECEPTOR ANTAGONISTS TO REDUCE INTRAOCULAR PRESSURE” (The Trustees of The University of Pennsylvania, priority 2006, published 2009).
Entries after “also recorded” stand apart in the source; their conditions may differ.

How the values were obtained:
[1] = system: mouse IOP; assay: Mouse IOP after topical application, non-invasive pneumotonometry; assay type: in vivo, Black Swiss mice
In short: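 Black Swiss outbred mice (7-9 weeks, mixed sex) under intraperitoneal ketamine plus topical proparacaine 0.5%. Drugs applied topically as […] droplets three times, containing <2% DMSO and 0.0005% benzalkonium chloride; IOP measured non-invasively by pneumotonometry at 10-min intervals from a stereotactically fixed probe position.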

[2] = system: cultured human NPE cells; details: 10 μM adenosine; cited from earlier work
[3] = system: HCE (human ciliary epithelial) cell line, NPE cells; assay: Cell volume in isosmotic solution (isosmotic shrinkage), Coulter Counter; assay type: cell-based
In short: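 Immortalized human NPE (HCE) cells, 8-13 days post-passage at confluence, suspended in isosmotic solution with test agents or matched vehicle. Volume measured by Coulter Counter as peak of distribution, normalized to first time point; shrinkage fit to monoexponential by nonlinear least squares for steady-state volume and time constant.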

## CCOC(=O)C1=C(C)NC(c2ccccc2)=C(C(=O)OCc2ccccc2)C1C#Cc1ccccc1 (racemic) [MRS-1191, 3-ethyl 5-benzyl-2-methyl-6-phenyl-4-phenylethynyl-1,4-(±)-dihydropyridine-3,5-dicarboxylate]
[1]; after the initial application, end of the experiments
  time of maximum decrease in IOP observed pneumotonometrically: 30 min
[1]; after topical application
  time to begin lowering mouse IOP significantly, non-invasive: 30 min
[2]
  effect of antagonist on adenosine-treated cells: displayed no exponential shrinkage
[3]; 100 nM IB-MECA, 2 min preincubation with 300 nM MRS-1097 or 100 nM MRS-1191
  effect of A3 antagonist on IB-MECA-triggered isosmotic shrinkage of NPE cells: prevented characteristic shrinkage; also recorded: prevented the shrinkage
[3]; 100 nM MRS-1191
  effect on cell volume in the absence of IB-MECA: did not affect cell volume
[3]; 3 μM CGS-21680, preincubation with 100 nM MRS-1191
  effect of A3 antagonist on isosmotic shrinkage triggered by CGS-21680: abolished this effect; also recorded: blocked; also recorded: prevented the shrinkage
[3]; 10 μM adenosine, 2 min preincubation with 300 nM MRS-1097, 100 nM MRS-1191 or 100 nM MRS-1523
  effect of A3 antagonist on adenosine-stimulated isotonic shrinkage of NPE cells: prevented the characteristic shrinkage; also recorded: blocked the shrinkage
